These results are taken from patent US10610507B2, “Methods for the treatment of sialorrhea” (NeuRX Pharmaceuticals LLC, priority 2012, dated 2020).

Structures are written as SMILES.

One may read the half-life as the time in which the quantity being followed falls by half. As usually defined, the microsomal CLint is a measure of how fast metabolising enzymes remove a compound, apart from limits set by blood flow.

For series [1] the following is noted: cited from earlier work.
A short description of a further series: in vitro. The settings on record: human, liver microsomes.
Series [2] can be described thus: Human liver microsome incubation study (metabolic stability). (In general: Microsomes from liver hold many membrane-bound enzymes, among them those of drug oxidation.)
The mark [3] stands for this setting: human liver microsome incubation.

For the molecule `CCN(CC)CC#CCOC(=O)C(O)(c1ccccc1)C1CCCCC1` (racemic) [Oxybutynin], the absolute bioavailability result in series [1] (administered orally) is reported as “about 6%”. In addition, the oral bioavailability entry in series [1] (after oral administration, pre-systemic metabolism) is “approximately 6.2%”. In series [1] (after oral administration), the “inter individual variation in maximal oxybutynin plasma concentration (Cmax)” value is 8 fold and the “inter individual variation in oxybutynin AUC” value is recorded as 13 fold. Also, the “increase of oxybutynin plasma levels” value in series [1] (co-administered with ketoconazole vs without ketoconazole) is given as 3-4 fold. In “in vitro”, this molecule showed a half-life of 5.2 min and a microsomal CLint of 267 µL/min/mg.
On to `CCNCC#CCOC(=O)C(O)(c1ccccc1)C1CCCCC1` (stereo not shown) [N-desethyloxybutynin, 4-(ethylamino) but-2-ynyl2-cyclohexyl-2-hydroxy-2-phenylacetate], for which the “stability to metabolism by human liver microsomes relative to oxybutynin” value in series [2] (compared with oxybutynin) was 10 times. In series [2] (setting [3]), the Clint came out at 0.0218 ml/min/mg protein and the “Half Life” value is recorded as >60 (63.6) mins.
